Assay results reported in ChEMBL document CHEMBL4507294, “Data for DCP probe MSD-CYP11B2” (2021).

Target: Alpha-1D adrenergic receptor (Homo sapiens) (UniProt P25100)
Settings: Compound concentration 10.0 uM

Alpha-1D adrenergic receptor (Homo sapiens), sequence (P25100 whole entry): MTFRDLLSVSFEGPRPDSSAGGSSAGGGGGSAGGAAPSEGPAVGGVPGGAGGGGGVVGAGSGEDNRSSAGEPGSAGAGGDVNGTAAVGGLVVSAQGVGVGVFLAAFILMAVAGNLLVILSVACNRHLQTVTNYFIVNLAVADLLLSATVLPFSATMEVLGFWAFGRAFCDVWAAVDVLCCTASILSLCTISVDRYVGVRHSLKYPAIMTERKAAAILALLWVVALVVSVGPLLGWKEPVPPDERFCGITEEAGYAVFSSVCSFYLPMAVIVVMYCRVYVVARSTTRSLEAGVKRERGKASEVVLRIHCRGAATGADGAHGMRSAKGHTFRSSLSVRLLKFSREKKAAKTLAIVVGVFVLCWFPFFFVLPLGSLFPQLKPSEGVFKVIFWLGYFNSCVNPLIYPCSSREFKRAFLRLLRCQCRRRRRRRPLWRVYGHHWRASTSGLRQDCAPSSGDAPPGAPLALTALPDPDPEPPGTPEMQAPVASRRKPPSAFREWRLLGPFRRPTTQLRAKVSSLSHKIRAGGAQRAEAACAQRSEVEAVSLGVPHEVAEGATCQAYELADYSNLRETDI

In the case of `CC(C)(O)c1cncc(-c2nc3ccc(F)cc3n2C2CC2)c1` [MSD-CYP11B2], the inhibition was 2.58%.
